# Laboratory results taken from patent publication US8343945B2, “Carriers, formulations, methods for formulating unstable active agents for external application and uses thereof” (Foamix Ltd., priority 2007, dated 2013).
# Legend:
# [1] = From the text: In one or more embodiments of the present disclosure, the foamable composition includes a potent solvent, in addition to or in place of one of the hydrophobic solvents, polar solvents or emollients of the composition. A potent solvent is a solvent other than mineral oil that solubilizes a specific active agent substantially better than a hydrocarbon solvent such as mineral oil or petrolatum.
# [2] = cited from earlier work
Compound,Solubility in dimethyl isosorbide [1],Solubility in glycofurol [1],Solubility in mineral oil [1],Solubility in polyethylene glycol 400 (PEG 400) [1],Solubility in propylene glycol [1],Solubility in alcohol ([2]; alcohol),Solubility in water ([2]; water)
C[C@H]1c2cccc(O)c2C(=O)C2=C(O)[C@]3(O)C(=O)C(C(N)=O)=C(O)[C@@H](N(C)C)[C@@H]3[C@@H](O)[C@@H]21 [doxycycline monohydrate],,,,,,sparingly soluble,very slightly soluble
CCCC(=O)O[C@]1(C(=O)CO)CC[C@H]2[C@@H]3CCC4=CC(=O)CC[C@]4(C)[C@H]3[C@@H](O)C[C@@]21C [Hydrocortisone butyrate],,more than 1%,< 0.01%,,,,

# Now from value to compound, other results behind:
Solubility in dimethyl isosorbide [1],Solubility in glycofurol [1],Solubility in mineral oil [1],Solubility in polyethylene glycol 400 (PEG 400) [1],Solubility in propylene glycol [1],Compound,Solubility in alcohol ([2]; alcohol),Solubility in water ([2]; water)
more than 1%,more than 1%,< 0.01%,more than 1%,more than 1%,C/C(=C\C(=O)OCCCCCCCCC(=O)O)C[C@@H]1OC[C@H](C[C@@H]2O[C@H]2[C@@H](C)[C@H](C)O)[C@@H](O)[C@H]1O [Mupirocin],,
,,< 0.001%,,,Cc1cnc(NC(=O)C2=C(O)c3ccccc3S(=O)(=O)N2C)s1 [Meloxicam],,
more than 1%,more than 1%,< 0.01%,,more than 1%,CC(=O)N1CCN(c2ccc(OCC3COC(Cn4ccnc4)(c4ccc(Cl)cc4Cl)O3)cc2)CC1 (stereo not drawn) [Ketoconazole],,
,,< 0.001%,,,CC(=O)[C@H]1CC[C@H]2[C@@H]3CCC4=CC(=O)CC[C@]4(C)[C@H]3CC[C@]12C [Progesterone],,
